# Assay results reported in patent US20240239752A1, “BICYCLIC HETEROAROMATIC INHIBITORS OF KLK5” (BioCryst Pharmaceuticals, Inc., priority 2021, published 2024).
# Molecular target: T1, recombinant human KLK5 (Homo sapiens, UniProt Q9Y337)
# T1 construct: purchased Novoprotein or R&D Systems C415 or 1108-SE
# T1 sequence (Q9Y337 23-293): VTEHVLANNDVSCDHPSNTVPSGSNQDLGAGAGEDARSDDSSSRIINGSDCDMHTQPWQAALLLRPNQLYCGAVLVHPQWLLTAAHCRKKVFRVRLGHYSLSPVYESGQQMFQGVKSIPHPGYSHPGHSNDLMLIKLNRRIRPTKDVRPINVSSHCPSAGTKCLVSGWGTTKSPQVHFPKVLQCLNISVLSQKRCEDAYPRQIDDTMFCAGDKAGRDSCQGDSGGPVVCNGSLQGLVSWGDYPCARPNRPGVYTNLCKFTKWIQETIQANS
# Assay: Kallikrein (KLK) 5 enzymatic assay (Boc-VPR-AMC fluorogenic substrate)
# Type: biochemical
# Details: recombinant human KLK5 0.1 μg/well, Boc-VPR-AMC 100 μM, pH 7.5, room temperature, 1% DMSO; tested a minimum of three times
# Text: Kallikrein-5 (KLK5) is a member of the serine protease family of proteolytic enzymes, confirmed to have trypsin-like activity (Michael I P, et al. Biochemical and enzymatic characterization of human kallikrein 5 (hK5), a novel serine protease potentially involved in cancer progression (J. Biol. Chem. 2005 Apr. 15; 280 (15): 14628-35). Boc-VPR-AMC is a fluorogenic peptide substrate composed of the short peptide chain, Valine-Proline-Arginine (VPR) and the fluorophore, 7-amino-4-methylcoumarin (AMC). KLK5 is able to cleave the fluorogenic peptide substrate Boc-VPR-AMC, releasing the AMC fluorophore, which causes a fluorescent emission in proportion with the enzymatic activity of KLK5. The KLK5 enzymatic activity is monitored by measuring fluorescent emission at wavelengths of 380 nm (excitation) and 460 nm (emission).
# The IC50 value of compounds against KLK5 (i.e., the concentration of the compound that inhibits 50% of the enzymatic activity) was calculated according to the procedure reported by R&D systems (Recombinant human KLK5, Catalog Number: 1108-SE), with the exception the pH of the assay was modified from 8.0 to 7.5. Specifically, recombinant human KLK5 (Novoprotein Catalog #C415 or R&D systems Catalog #1108-SE) and fluorogenic peptide Boc-VPR-AMC substrate (R&D Catalog #ES011) were each separately diluted in assay buffer (0.1 M NaH2PO4 buffer, pH 7.5). The compounds of the disclosure were dissolved in DMSO at a concentration of 10 mM. A portion of this stock solution was added to the recombinant human KLK5 solution to provide a desired concentration of the compounds and the mixture was incubated at room temperature. The reaction was initiated by the addition of the fluorogenic peptide substrate at room temperature. The final concentration of recombinant human KLK5 was 0.1 μg/well and the final concentration of the fluorogenic substrate was 100 μM (final volume of 100 μL, 1% DMSO). The assays were performed in 96 well F16 Black Maxisorp Plate (Nunc Catalog #475515). Controls included assay buffer alone and enzyme solutions to which DMSO was added. The reaction rates were measured spectrophotometrically by excitation at 380 nm and emission at 460 nm on a Biotek Synergy H1 plate reader.
# The reaction rate for enzyme alone was compared to the reaction rate of enzyme in the presence of compound and the percent inhibition was calculated as shown below:
# Percent Inhibition=[Rate with inhibitor/Rate without inhibitor)]×100
# An IC50 indicates a compound concentration that inhibits 50% of the enzymatic activity. Compounds were tested a minimum of three times.
row,Compound,IC50
1,"CC(C)n1nc(C(=O)Nc2ccccc2C(=O)O)c2cc(-c3cccc(C(=N)N)c3)ccc21 [Compound 1i, 2-(5-(3-carbamimidoylphenyl)-1-isopropyl-1H-indazole-3-carboxamido)benzoic acid]",1000 to 10000 nM
2,"CC(C)n1nc(COc2ccccc2CC(=O)O)c2cc(-c3ccc(C(=N)N)cc3)ccc21 [Compound 2g, 2-(2-((5-(4-carbamimidoylphenyl)-1-isopropyl-1H-indazol-3-yl)methoxy)phenyl)acetic acid]",> 10000 nM
3,"CC(C)n1nc(C(=O)Nc2ccccc2C(=O)O)c2cc(-c3ccc(C(=N)N)cc3)ccc21 [Compound 3b, 2-(5-(4-carbamimidoylphenyl)-1-isopropyl-1H-indazole-3-carboxamido)benzoic acid]",> 10000 nM
4,"CC(C)(C)OC(=O)N1CC(n2nc(COc3ccccc3CC(=O)O)c3cc(-c4ccc5ccnc(N)c5c4)ccc32)C1 [Compound 10e, 2-(2-((5-(1-aminoisoquinolin-7-yl)-1-(1-(tert-butoxycarbonyl)azetidin-3-yl)-1H-indazol-3-yl)methoxy)phenyl)acetic acid]",< 1000 nM
5,"Nc1nccc2ccc(-c3ccc4c(c3)c(COc3ccccc3CC(=O)O)nn4C3CC(F)(F)C3)cc12 [Compound 11e, 2-(2-((5-(1-aminoisoquinolin-7-yl)-1-(3,3-difluorocyclobutyl)-1H-indazol-3-yl)methoxy)phenyl)acetic acid]",< 1000 nM
6,"Nc1nccc2ccc(-c3ccc4nc(C5CC5)cc(COc5ccccc5CC(=O)O)c4c3)cc12 [Compound 12e, 2-(2-((6-(1-aminoisoquinolin-7-yl)-2-cyclopropylquinolin-4-yl)methoxy)phenyl)acetic acid]",> 10000 nM
7,"COc1ccc(CC(=O)O)c(OCc2c3cc(-c4ccc5ccnc(N)c5c4)ccc3nn2C2CCOC2)c1 (stereo not drawn) [Compound 13c, 2-(2-((5-(1-aminoisoquinolin-7-yl)-2-(tetrahydrofuran-3-yl)-2H-indazol-3-yl)methoxy)-4-methoxyphenyl)acetic acid]",1000 to 10000 nM
8,"COC(=O)Cc1ccc(OC)cc1OCc1c2cc(-c3ccc4ccnc(N)c4c3)ccc2nn1C1CCOC1 (stereo not drawn) [Compound 13d, methyl 2-(2-((5-(1-aminoisoquinolin-7-yl)-2-(tetrahydrofuran-3-yl)-2H-indazol-3-yl)methoxy)-4-methoxyphenyl)acetate]",> 10000 nM
9,"Nc1nccc2c(-c3ccc4nn(C5CCCCC5)c(COc5ccccc5CC(=O)O)c4c3)cccc12 [Compound 14f, 2-(2-((5-(1-aminoisoquinolin-5-yl)-2-cyclohexyl-2H-indazol-3-yl)methoxy)phenyl)acetic acid]",1000 to 10000 nM
10,"Cc1ccc(CC(=O)O)c(OCc2c3cc(-c4ccc5ccnc(N)c5c4)ccc3nn2C2CCCCC2)c1 [Compound 15d, 2-(2-((5-(1-aminoisoquinolin-7-yl)-2-cyclohexyl-2H-indazol-3-yl)methoxy)-4-methylphenyl)acetic acid]",> 10000 nM
11,"COc1ccc(CC(=O)O)c(OCc2c3cc(-c4ccc5ccnc(N)c5c4)ccc3nn2C2CCCCC2)c1 [Compound 16c, 2-(2-((5-(1-aminoisoquinolin-7-yl)-2-cyclohexyl-2H-indazol-3-yl)methoxy)-4-methoxyphenyl)acetic acid]",1000 to 10000 nM
12,"Cc1ccc(CC(=O)O)c(OCc2c3cc(-c4ccc5ccnc(N)c5c4)ccc3nn2C2CCC2)c1 [Compound 17e, 2-(2-((5-(1-aminoisoquinolin-7-yl)-2-cyclobutyl-2H-indazol-3-yl)methoxy)-4-methylphenyl)acetic acid]",> 10000 nM
13,"Cc1ccc(CC(=O)O)c(OCc2c3cc(-c4cccc5c(N)nccc45)ccc3nn2C2CCC2)c1 [Compound 18c, 2-(2-((5-(1-aminoisoquinolin-5-yl)-2-cyclobutyl-2H-indazol-3-yl)methoxy)-4-methylphenyl)acetic acid]",1000 to 10000 nM
14,"COc1ccc(CC(=O)O)c(OCc2c3cc(-c4cccc5c(N)nccc45)ccc3nn2C2CCC2)c1 [Compound 19c, 2-(2-((5-(1-aminoisoquinolin-5-yl)-2-cyclobutyl-2H-indazol-3-yl)methoxy)-4-methoxyphenyl)acetic acid]",1000 to 10000 nM
15,"COc1ccc(CC(=O)O)c(OCc2c3cc(-c4ccc5ccnc(N)c5c4)ccc3nn2C2CCC2)c1 [Compound 20b, 2-(2-((5-(1-aminoisoquinolin-7-yl)-2-cyclobutyl-2H-indazol-3-yl)methoxy)-4-methoxyphenyl)acetic acid]",1000 to 10000 nM
16,"Nc1nccc2c(-c3ccc4nn(C5CCCC5)c(COc5ccccc5CC(=O)O)c4c3)cccc12 [Compound 21e, 2-(2-((5-(1-aminoisoquinolin-5-yl)-2-cyclopentyl-2H-indazol-3-yl)methoxy)phenyl)acetic acid]",< 1000 nM
17,"N=C(N)c1cccc(-c2ccc3nn(C4CCCC4)c(COc4ccccc4CC(=O)O)c3c2)c1 [Compound 22c, 2-(2-((5-(3-carbamimidoylphenyl)-2-cyclopentyl-2H-indazol-3-yl)methoxy)phenyl)acetic acid]",< 1000 nM
18,"COc1c(-c2ccc3nn(C4CCC4)c(COc4ccccc4CC(=O)O)c3c2)ccnc1C(=N)NO [Compound 23g, 2-(2-((2-cyclobutyl-5-(2-(N-hydroxycarbamimidoyl)-3-methoxypyridin-4-yl)-2H-indazol-3-yl)methoxy)phenyl)acetic acid]",1000 to 10000 nM
19,"COc1c(-c2ccc3nn(C4CCC4)c(COc4ccccc4CC(=O)O)c3c2)ccnc1C(=N)N [Compound 24b, 2-(2-((5-(2-carbamimidoyl-3-methoxypyridin-4-yl)-2-cyclobutyl-2H-indazol-3-yl)methoxy)phenyl)acetic acid]",< 1000 nM

# Second part, the compound after the results:
row,IC50,Compound
1,< 1000 nM,"CCC(=O)N1CCC2(CC1)CC(Oc1ccccc1CC(=O)O)c1cc(-c3cccc4c(N)nccc34)ccc12 (single isomer, unassigned; (+)) [Compound 385d, (+)-2-(2-((5-(1-aminoisoquinolin-5-yl)-1′-propionyl-2,3-dihydrospiro[indene-1,4′-piperidin]-3-yl)oxy)phenyl)acetic acid]"
2,< 1000 nM,"CCC(=O)N1CCC2(CC1)CC(Oc1ccccc1CC(=O)O)c1cc(-c3cccc4c(N)nccc34)ccc12 (single isomer, unassigned; (-)) [Compound 385e, (−)-2-(2-((5-(1-aminoisoquinolin-5-yl)-1′-propionyl-2,3-dihydrospiro[indene-1,4′-piperidin]-3-yl)oxy)phenyl)acetic acid]"
3,< 1000 nM,"COc1ccc(CC(=O)O)c(OCc2c(C)oc3ccc(-c4cccc(C(=N)N)c4)cc23)c1 [7 g, 2-(2-((5-(3-carbamimidoylphenyl)-2-methylbenzofuran-3-yl)methoxy)-4-methoxyphenyl)acetic acid]"
4,< 1000 nM,"Cn1nc(COc2ccccc2CC(=O)O)c2cc(-c3cccc(C(=N)N)c3)ccc21 [Compound 4e, 2-(2-((5-(3-carbamimidoylphenyl)-1-methyl-1H-indazol-3-yl)methoxy)phenyl)acetic acid]"
5,< 1000 nM,"COc1ccc(CC(=O)O)c(OCc2nn(C(C)C)c3ccc(-c4cccc(C(=N)N)c4)cc23)c1 [Compound 5e, 2-(2-((5-(3-carbamimidoylphenyl)-1-isopropyl-1H-indazol-3-yl)methoxy)-4-methoxyphenyl)acetic acid]"
6,< 1000 nM,"CC(C)n1nc(COc2ccccc2CC(=O)O)c2cc(-c3cccc(C(=N)N)c3)ccc21 [Compound 6b, 2-(2-((5-(3-carbamimidoylphenyl)-1-isopropyl-1H-indazol-3-yl)methoxy)phenyl)acetic acid]"
7,< 1000 nM,"Nc1nccc2c(-c3ccc4nn(C5CCOC5)c(COc5ccccc5CC(=O)O)c4c3)cccc12 (stereo not drawn) [Compound 8g, 2-(2-((5-(1-aminoisoquinolin-5-yl)-2-(tetrahydrofuran-3-yl)-2H-indazol-3-yl)methoxy)phenyl)acetic acid]"
8,< 1000 nM,"CC1CC(n2nc(COc3ccccc3CC(=O)O)c3cc(-c4ccc5ccnc(N)c5c4)ccc32)C1 (stereo not drawn) [Compound 9j, 2-(2-((5-(1-aminoisoquinolin-7-yl)-1-(3-methylcyclobutyl)-1H-indazol-3-yl)methoxy)phenyl)acetic acid]"
